target: T1, JAK3 (Homo sapiens, UniProt P52333); assay: JAK3 inhibition assay; type: biochemical; conditions: 2 μM ATP, Poly (Glu, Ala, Tyr) 6:3:1 coated plates, 60 minutes at 30° C.
T1 sequence (P52333 1-1124): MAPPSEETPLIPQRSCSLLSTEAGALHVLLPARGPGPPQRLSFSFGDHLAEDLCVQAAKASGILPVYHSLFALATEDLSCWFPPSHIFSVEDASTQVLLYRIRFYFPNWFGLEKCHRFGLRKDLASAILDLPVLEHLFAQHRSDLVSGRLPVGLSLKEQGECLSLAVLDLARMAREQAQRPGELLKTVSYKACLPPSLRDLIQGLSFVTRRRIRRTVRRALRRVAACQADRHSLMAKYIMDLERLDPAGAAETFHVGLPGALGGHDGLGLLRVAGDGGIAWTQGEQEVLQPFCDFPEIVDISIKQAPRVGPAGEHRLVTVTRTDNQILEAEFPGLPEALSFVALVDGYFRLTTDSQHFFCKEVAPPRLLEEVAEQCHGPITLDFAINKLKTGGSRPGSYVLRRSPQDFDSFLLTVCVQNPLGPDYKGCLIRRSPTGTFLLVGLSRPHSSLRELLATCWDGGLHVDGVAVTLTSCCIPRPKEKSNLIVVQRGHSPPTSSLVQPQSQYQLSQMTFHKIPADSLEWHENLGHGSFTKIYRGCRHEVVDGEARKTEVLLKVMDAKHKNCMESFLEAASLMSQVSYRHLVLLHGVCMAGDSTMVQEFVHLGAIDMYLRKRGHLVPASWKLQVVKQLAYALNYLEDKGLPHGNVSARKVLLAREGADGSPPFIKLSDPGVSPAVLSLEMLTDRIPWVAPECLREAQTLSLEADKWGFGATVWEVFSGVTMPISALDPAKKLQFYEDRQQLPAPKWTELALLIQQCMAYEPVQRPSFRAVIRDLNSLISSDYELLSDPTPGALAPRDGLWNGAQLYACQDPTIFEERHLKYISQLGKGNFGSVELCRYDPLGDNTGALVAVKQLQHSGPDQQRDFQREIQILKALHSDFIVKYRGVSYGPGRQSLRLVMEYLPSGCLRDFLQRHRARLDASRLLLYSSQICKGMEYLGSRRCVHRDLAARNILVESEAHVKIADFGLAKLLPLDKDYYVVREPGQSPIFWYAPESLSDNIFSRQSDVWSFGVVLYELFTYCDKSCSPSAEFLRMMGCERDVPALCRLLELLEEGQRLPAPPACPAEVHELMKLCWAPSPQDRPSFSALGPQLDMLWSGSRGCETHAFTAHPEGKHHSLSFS
Method: Compound inhibition of JAK was assayed by the method described by G. R. Brown, et al, Bioorg. Med. Chem. Lett. 2000, vol. 10, pp 575-579 in the following manner. Into Maxisorb plates, previously coated at 4° C. with Poly (Glu, Ala, Tyr) 6:3:1 then washed with phosphate buffered saline 0.05% and Tween (PBST), was added 2 μM ATP, 5 mM MgCl2, and a solution of compound in DMSO. The reaction was started with JAK enzyme and the plates incubated for 60 minutes at 30° C. The plates were then washed with PBST, 100 μL HRP-Conjugated 4G10 antibody was added, and the plate incubated for 90 minutes at 30° C. The plate was again washed with PBST, 100 μL TMB solution is added, and the plates were incubated for another 30 minutes at 30° C. Sulfuric acid (100 μL of 1M) was added to stop the reaction and the plate is read at 450 nm, and Ki values were determined.

Ki, ≤ 1 µM:
NS(=O)(=O)c1cccc(Nc2nccc(-c3cccc(NC(=O)c4ccco4)c3)n2)c1 [IV-A(i)-1]
COc1cccc(Nc2nccc(-c3cccc(N(C)C(=O)c4ccco4)c3)n2)c1 [IV-A(i)-2]
O=C(Nc1cccc(-c2ccnc(Nc3cccc(O)c3)n2)c1)c1ccco1 [IV-A(i)-4]
Nc1cccc(Nc2nccc(-c3cccc(NC(=O)c4ccccn4)c3)n2)c1 [IV-A(i)-5]
Nc1cccc(Nc2nccc(-c3cccc(NC(=O)c4cccs4)c3)n2)c1 [IV-A(i)-6]
NS(=O)(=O)c1cccc(Nc2nccc(-c3ccc(NC(=O)COc4ccccc4)cc3)n2)c1 [IV-B(i)-1]
Nc1cccc(Nc2nccc(-c3ccc(NC(=O)c4cccs4)cc3)n2)c1 [IV-B(i)-2]
Nc1cccc(Nc2nccc(-c3ccc(NC(=O)COc4ccccc4)cc3)n2)c1 [IV-B(i)-3]
Nc1cccc(Nc2nccc(-c3ccc(NC(=O)c4ccco4)cc3)n2)c1 [IV-B(i)-4]
Nc1cccc(Nc2nccc(-c3ccc(NC(=O)CN4CCOCC4)cc3)n2)c1 [IV-B(i)-5]
Nc1cccc(Nc2nccc(-c3ccc(NC(=O)CN4CCCC(CO)C4)cc3)n2)c1 (centres unmarked) [IV-B(i)-6]
Nc1cccc(Nc2nccc(-c3ccc(NC(=O)CN4CCC(CO)CC4)cc3)n2)c1 [IV-B(i)-7]
Nc1cccc(Nc2nccc(-c3ccc(NC(=O)CN4CCC(O)CC4)cc3)n2)c1 [IV-B(i)-8]
Nc1cccc(Nc2nccc(-c3ccc(NC(=O)CN4CCCC4CO)cc3)n2)c1 (centres unmarked) [IV-B(i)-9]
O=C(Nc1ccc(-c2ccnc(Nc3cccc(O)c3)n2)cc1)c1cccs1 [IV-B(i)-10]
O=C(COc1ccccc1)Nc1ccc(-c2ccnc(Nc3cccc(O)c3)n2)cc1 [IV-B(i)-11]
O=C(NCC1CCCO1)c1cccc(-c2ccnc(Nc3ccccc3)n2)c1 (centres unmarked) [IV-C(i)-15]
O=C(NCc1ccccc1)c1ccc(-c2ccnc(Nc3ccccc3)n2)cc1 [IV-D(i)-2]

target: JNK3 (Homo sapiens, UniProt P53779); assay: JNK3 inhibition assay (spectrophotometric coupled-enzyme assay); type: biochemical; conditions: 10 nM activated JNK3, 10 μM ATP, 200 μM EGF receptor peptide, 30° C.
Sequence (P53779 whole entry): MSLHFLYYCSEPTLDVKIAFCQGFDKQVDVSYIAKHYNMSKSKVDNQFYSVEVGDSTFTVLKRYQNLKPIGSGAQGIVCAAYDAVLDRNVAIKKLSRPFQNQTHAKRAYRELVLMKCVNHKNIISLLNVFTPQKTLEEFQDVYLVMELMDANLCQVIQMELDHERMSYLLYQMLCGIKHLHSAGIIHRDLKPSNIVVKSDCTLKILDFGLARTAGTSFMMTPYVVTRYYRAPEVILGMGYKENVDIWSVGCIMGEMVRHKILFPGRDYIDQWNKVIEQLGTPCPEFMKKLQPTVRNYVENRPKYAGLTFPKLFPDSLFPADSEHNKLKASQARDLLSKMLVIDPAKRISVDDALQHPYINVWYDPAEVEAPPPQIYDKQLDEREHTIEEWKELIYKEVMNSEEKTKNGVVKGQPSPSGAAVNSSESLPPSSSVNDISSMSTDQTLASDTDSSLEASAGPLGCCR
Method: Compounds were assayed for the inhibition of JNK3 by a spectrophotometric coupled-enzyme assay. In this assay, a fixed concentration of activated JNK3 (10 nM) was incubated with various concentrations of a potential inhibitor dissolved in DMSO for 10 minutes at 30° C. in a buffer containing 0.1 M HEPES buffer, pH 7.5, containing 10 mM MgCl2, 2.5 mM phosphoenolpyruvate, 200 μM NADH, 150 μg/mL pyruvate kinase, 50 μg/mL lactate dehydrogenase, and 200 μM EGF receptor peptide. The EGF receptor is a phosphoryl acceptor in the JNK3-catalyzed kinase reaction. The reaction was initiated by the addition of 10 μM ATP and the assay plate is inserted into the spectrophotometer's assay plate compartment that was maintained at 30° C. The decrease of absorbance at 340 nm was monitored as a function of time. The rate data as a function of inhibitor concentration was fitted to competitive inhibition kinetic model to determine the Ki.

Ki, ≤ 1 µM:
Nc1cccc(Nc2nccc(-c3ccc(NC(=O)c4cccs4)cc3)n2)c1 [IV-B(i)-2]
O=C(COc1ccccc1)Nc1ccc(-c2ccnc(Nc3cccc(O)c3)n2)cc1 [IV-B(i)-11]

target: CDK-2/Cyclin A (Homo sapiens, UniProt P24941); assay: CDK2 inhibition assay (coupled enzyme assay); type: biochemical; conditions: 100 μM ATP, 100 μM peptide, 25 nM CDK-2/Cyclin A, 30° C.
Method: Compounds were screened for their ability to inhibit CDK-2/Cyclin A using a standard coupled enzyme assay (Fox et al (1998) Protein Sci 7, 2249). Reactions were carried out in 100 mM HEPES pH 7.5, 10 mM MgCl2, 25 mM NaCl, 1 mM DTT and 1.5% DMSO. Final substrate concentrations in the assay were 100 μM ATP (Sigma chemicals) and 100 μM peptide (American Peptide, Sunnyvale, Calif.). Assays were carried out at 30° C. and 25 nM CDK-2/Cyclin A. Final concentrations of the components of the coupled enzyme system were 2.5 mM phosphoenolpyruvate, 350 μM NADH, 30 μg/ml pyruvate kinase and 10 μg/ml lactate dehydrogenase.
An assay stock buffer solution was prepared containing all of the reagents listed above, with the exception of CDK-2/Cyclin A, DTT and the test compound of interest. 56 μl of the test reaction was placed in a 384 well plate followed by addition of 1 μl of 2 mM DMSO stock containing the test compound (final compound concentration 30 μM). The plate was preincubated for ˜10 minutes at 30° C. and the reaction initiated by addition of 10 μl of enzyme (final concentration 25 nM). Rates of reaction were obtained using a BioRad Ultramark plate reader (Hercules, Calif.) over a 5 minute read time at 30° C. and Ki values were determined.

Ki, ≤ 1 µM:
Nc1cccc(Nc2nccc(-c3ccc(NC(=O)c4cccs4)cc3)n2)c1 [IV-B(i)-2]
O=C(COc1ccccc1)Nc1ccc(-c2ccnc(Nc3cccc(O)c3)n2)cc1 [IV-B(i)-11]
Cc1ccc(-c2ccnc(Nc3ccccc3)n2)cc1C(=O)Nc1ccccc1 [IV-C(i)-2]
Cc1ccc(-c2ccnc(Nc3ccccc3)n2)cc1C(=O)NC1CCCCC1 [IV-C(i)-3]
Cc1ccc(-c2ccnc(Nc3ccccc3)n2)cc1C(=O)NCc1ccccc1 [IV-C(i)-4]
O=C(NC1CCCCC1)c1ccc(-c2ccnc(Nc3ccccc3)n2)cc1 [IV-D(i)-4]

— US7312227B2, “Compositions useful as inhibitors of JAK and other protein kinases” (Vertex Pharmaceuticals Incorporated, priority 2002, dated 2007)
